According to patent US20220324835A1 (Nurix Therapeutics, Inc., priority 2018, published 2022):

Tests used:
Cbl-b [1] = target: T1, Cbl-b (Homo sapiens, UniProt Q13191); assay: Cbl-b inhibition assay (Cbl-b activity assay, FRET, Biological Example 1; 100 mM NaCl, 60 nM Src kinase); format: biochemical; conditions: upper bound stated in text lists; read-out: IC50 values in the Cbl-b inhibition assay of Biological Example 1
Method in brief: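 Steps: Src kinase phosphorylates N-terminal biotinylated Avi-tagged Cbl-b; phosphorylated Cbl-b binds Bodipy-fluorescein ubiquitin-loaded UbcH5B; streptavidin-terbium on Cbl-b sits close to the fluorescein label, producing FRET. Inhibitors block UbcH5B-Ub binding.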

T-cell [2] = assay: IL-2 secretion from T-cells co-stimulated with anti-CD3 and anti-CD28 antibody (Biological Example 2); format: cell-based, human; conditions: for fold induction at 0.3 µM / fold induction at 1 µM: Homo sapiens, T-cell; for IL-2 secretion, Anti-CD3/Anti-CD28 stimulation, fold change over baseline: primary human total T-cells, baseline = anti-CD3/anti-CD28 stimulated cells without inhibitor
Method in brief: (§1)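 T-cells were stimulated with anti-CD3 antibody alone or with anti-CD28 antibody, in the presence or absence of Cbl-b inhibitor. IL-2 secretion or CD25 surface staining was measured, and values expressed as fold over the uninhibited baseline […].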

T-cell [3] = assay: CD25 cell surface staining on T-cells stimulated with anti-CD3 antibody alone (Biological Example 2); format: cell-based, human; conditions: for fold induction at 1 µM: Homo sapiens, T-cell; for CD25 staining, Anti-CD3 stimulation, fold change over baseline: primary human total T-cells, baseline = anti-CD3/anti-CD28 stimulated cells without inhibitor
T-cell [4] = assay: IL-2 secretion from T-cells stimulated with anti-CD3 antibody alone (Biological Example 2); format: cell-based, human; conditions: for fold induction at 1 µM: Homo sapiens, T-cell; for IL-2 secretion, Anti-CD3 stimulation, fold change over baseline: primary human total T-cells
T-cell [5] = assay: CD25 cell surface staining on T-cells co-stimulated with anti-CD3 and anti-CD28 antibody (Biological Example 2); format: cell-based, human; conditions: for fold induction at 0.3 µM / fold induction at 1 µM: Homo sapiens, T-cell; for CD25 staining, Anti-CD3/Anti-CD28 stimulation, fold change over baseline: primary human total T-cells, baseline = anti-CD3/anti-CD28 stimulated cells without inhibitor
Method in brief: as §1

Cbl-b [6] = target: T1, Cbl-b; assay: Cbl-b activity assay (Cbl-b inhibition assay), TR-FRET of Cbl-b interaction with UbcH5B-Ub; format: biochemical; conditions: assay buffer with 100 mM NaCl, 60 nM Src kinase; read-out: Cbl-b activity IC50
Method in brief: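 UbcH5B (C85K) conjugated to N-terminally Bodipy-Fluorescein-labeled ubiquitin served as the fluorescent partner. After compound preincubation, Src kinase (60 nM) with 1 mM ATP and 5 mM MgCl2 (final) was added for 1.5 h, followed by a further 1 h incubation. Some values were obtained with 50 mM NaCl and 30 nM Src.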

[7] = 0.3 μM Cbl-b inhibitor, fold change over baseline (anti-CD3/anti-CD28 stimulated T-cells without inhibitor), read-out: IL-2 secretion Anti-CD3/Anti-CD28 stimulation
[8] = 1 μM Cbl-b inhibitor, fold change over baseline (anti-CD3/anti-CD28 stimulated T-cells without inhibitor), read-out: IL-2 secretion Anti-CD3/Anti-CD28 stimulation
[9] = 1 μM Cbl-b inhibitor, fold change over baseline (anti-CD3/anti-CD28 stimulated T-cells without inhibitor), read-out: CD25 staining Anti-CD3 stimulation
[10] = 1 μM Cbl-b inhibitor, fold change over baseline (anti-CD3/anti-CD28 stimulated T-cells without inhibitor), read-out: IL-2 secretion Anti-CD3 stimulation
[11] = 0.3 μM Cbl-b inhibitor, fold change over baseline (anti-CD3/anti-CD28 stimulated T-cells without inhibitor), read-out: CD25 staining Anti-CD3/Anti-CD28 stimulation
[12] = 1 μM Cbl-b inhibitor, fold change over baseline (anti-CD3/anti-CD28 stimulated T-cells without inhibitor), read-out: CD25 staining Anti-CD3/Anti-CD28 stimulation
[13] = read-out: IL-2 secretion, Anti-CD3/Anti-CD28 stimulation, fold change over baseline
[14] = read-out: CD25 staining, Anti-CD3/Anti-CD28 stimulation, fold change over baseline

T1 sequence (Q13191 36-427): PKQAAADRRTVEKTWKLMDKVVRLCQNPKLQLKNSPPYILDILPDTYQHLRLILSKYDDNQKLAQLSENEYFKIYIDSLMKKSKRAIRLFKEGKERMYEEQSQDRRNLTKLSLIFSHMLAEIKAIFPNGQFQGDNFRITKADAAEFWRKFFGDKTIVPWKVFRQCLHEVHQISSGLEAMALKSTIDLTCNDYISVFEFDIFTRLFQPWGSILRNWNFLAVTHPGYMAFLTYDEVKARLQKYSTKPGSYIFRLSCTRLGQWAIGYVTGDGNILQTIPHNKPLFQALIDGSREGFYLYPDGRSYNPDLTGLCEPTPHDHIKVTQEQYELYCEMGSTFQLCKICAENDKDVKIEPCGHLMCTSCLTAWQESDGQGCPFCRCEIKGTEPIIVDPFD

For Cn1cnnc1CC1(c2cccc(N3Cc4c(cc(OC(F)F)cc4C(F)(F)F)C3=O)c2)COC1 [Example 595, 6-(Difluoromethoxy)-2-(3-(3-((4-methyl-4H-1,2,4-triazol-3-yl)methyl)oxetan-3-yl)phenyl)-4-(trifluoromethyl)isoindolin-1-one], the IC50 (Cbl-b [1]) was no more than 100 nM, the fold induction at 0.3 µM (T-cell [2]; [7]) was 2.51 to 5 and the fold induction at 1 µM (T-cell [2]; [8]) was 5 to 7.5. For the same molecule, the fold induction at 1 µM (T-cell [3]; [9]) was 0.801 to 1, the fold induction at 1 µM (T-cell [4]; [10]) was 0.051 to 0.1 and the fold induction at 0.3 µM (T-cell [5]; [11]) was 1.01 to 1.3. It also gave a fold induction at 1 µM (T-cell [5]; [12]) of 1.31 to 1.5 and an IC50 (Cbl-b [6]) of less than 100 nM.

In the case of Cc1cnn2c(C(=O)Nc3cccc(C4(Cc5nncn5C)COC4)c3)cc(C(F)(F)F)nc12 [Example 599, 3-methyl-N-(3-(3-((4-methyl-4H-1,2,4-triazol-3-yl)methyl)oxetan-3-yl)phenyl)-5-(trifluoromethyl)pyrazolo[1,5-a]pyrimidine-7-carboxamide], the IC50 (Cbl-b [1]) is reported as no more than 1000 nM, the fold induction at 0.3 µM (T-cell [2]; [7]) is reported as less than 1 and the fold induction at 1 µM (T-cell [2]; [8]) is reported as 1.01 to 2.5. The fold induction at 1 µM (T-cell [3]; [9]) was 0.601 to 0.8, the fold induction at 1 µM (T-cell [4]; [10]) was less than 0.05 and the fold induction at 0.3 µM (T-cell [5]; [11]) was 1.01 to 1.3. The fold induction at 1 µM (T-cell [5]; [12]) was 1.01 to 1.3 and the IC50 (Cbl-b [6]) was 301 to 1000 nM.

In the case of Cn1cnnc1[C@@H](F)[C@](C)(F)c1cccc(N2Cc3c(cccc3C(F)(F)F)C2=O)c1 (stereo in doubt) [Compound 480, 2-(3-((1R,2R)-1,2-difluoro-1-(4-methyl-4H-1,2,4-triazol-3-yl)propan-2-yl)phenyl)-4-(trifluoromethyl)isoindolin-1-one], the IC50 (Cbl-b [1]) is reported as no more than 300 nM, the “IL-2 secretion, Anti-CD3/Anti-CD28 stimulation, fold change over baseline” value (T-cell [2]; 0.3 μM compound) is reported as “D (D indicates 1.01-2.50 fold)” and the “IL-2 secretion, Anti-CD3/Anti-CD28 stimulation, fold change over baseline” value (T-cell [2]; 1 μM compound) is reported as “D (D indicates 1.01-2.50 fold)”. For the same molecule, the “IL-2 secretion, Anti-CD3/Anti-CD28 stimulation, fold change over baseline” value (T-cell [2]; 4 μM compound) was “D (D indicates 1.01-2.50 fold)”, the “CD25 staining, Anti-CD3 stimulation, fold change over baseline” value (T-cell [3]; 1 μM compound) was “D (D indicates ≤0.600 fold)” and the “CD25 staining, Anti-CD3 stimulation, fold change over baseline” value (T-cell [3]; 8 μM compound) was “C (C indicates 0.601<0.800 fold)”. For the same molecule, the “IL-2 secretion, Anti-CD3 stimulation, fold change over baseline” value (T-cell [4]; 1 μM compound) was “E (E indicates ≤0.050 fold)”, the “IL-2 secretion, Anti-CD3 stimulation, fold change over baseline” value (T-cell [4]; 8 μM compound) was “D (D indicates 0.051-0.1 fold)” and the “CD25 staining, Anti-CD3/Anti-CD28 stimulation, fold change over baseline” value (T-cell [5]; 0.3 μM compound) was “D (D indicates 1.01-1.30 fold)”. For the same molecule, the “CD25 staining, Anti-CD3/Anti-CD28 stimulation, fold change over baseline” value (T-cell [5]; 1 μM compound) was “D (D indicates 1.01-1.30 fold)”, the “CD25 staining, Anti-CD3/Anti-CD28 stimulation, fold change over baseline” value (T-cell [5]; 4 μM compound) was “D (D indicates 1.01-1.30 fold)” and the IC50 (Cbl-b [6]) was 100 to 300 nM.

Cn1cnnc1CC1(c2cccc(N3Cc4c(cc(CN5C6CCCC5CC6)cc4C(F)(F)F)C3=O)c2)COC1 [Example 556, 6-((8-azabicyclo[3.2.1]octan-8-yl)methyl)-2-(3-(3-((4-methyl-4H-1,2,4-triazol-3-yl)methyl)oxetan-3-yl)phenyl)-4-(trifluoromethyl)isoindolin-1-one] was tested, and the IC50 (Cbl-b [1]) was no more than 100 nM, the fold induction at 0.3 µM (T-cell [2]; [13]) was greater than 7.5 and the fold induction at 1 µM (T-cell [2]; [13]) was greater than 7.5. It also gave a fold induction at 1 µM (T-cell [3]; read-out: CD25 staining, Anti-CD3 stimulation, fold change over baseline) greater than 1, a fold induction at 1 µM (T-cell [4]; read-out: IL-2 secretion, Anti-CD3 stimulation, fold change over baseline) greater than 0.201 and a fold induction at 0.3 µM (T-cell [5]; [14]) greater than 1.76. The fold induction at 1 µM (T-cell [5]; [14]) was greater than 1.76 and the IC50 (Cbl-b [6]) was less than 100 nM.

Work on Cn1cnnc1[C@@H](F)C1(c2cccc(N3Cc4c(cc(CN5C6CCCC5CC6)cc4C(F)(F)F)C3=O)c2)COC1 [Example 675a, 6-((8-azabicyclo[3.2.1]octan-8-yl)methyl)-2-(3-(3-((S)-fluoro(4-methyl-4H-1,2,4-triazol-3-yl)methyl)oxetan-3-yl)phenyl)-4-(trifluoromethyl)isoindolin-1-one] yielded an IC50 (Cbl-b [1]) of no more than 100 nM, a fold induction at 0.3 µM (T-cell [2]; [7]) of 2.51 to 5 and a fold induction at 1 µM (T-cell [2]; [8]) of 5 to 7.5. It also gave a fold induction at 1 µM (T-cell [3]; [9]) greater than 1, a fold induction at 1 µM (T-cell [4]; [10]) of 0.101 to 0.15 and a fold induction at 0.3 µM (T-cell [5]; [11]) of 1.01 to 1.3. The fold induction at 1 µM (T-cell [5]; [12]) was 1.31 to 1.5 and the IC50 (Cbl-b [6]) was less than 100 nM.
